Reference: patent US6875761B2 (Eisai Co., Ltd., priority 1997, dated 2005)
Where a name gives a salt, the structure may show the parent alone.

melting point	Compound
100 to 103 °C	CCN1CCN(c2nc(C(O)c3ccccc3OC)cc3ccccc23)CC1 (stereo not shown) (as salt: oxalate)
127 to 129 °C	CCCS(=O)(=O)c1ccc(-c2cc3ccccc3c(N3CCN(CCO)CC3)n2)cc1 (as salt: oxalate)
86 to 88 °C	CCN1CCN(c2nc(C(C)c3ccc(OC)cc3)cc3ccccc23)CC1 (stereo not drawn) (as salt: oxalate) [Example 102, 3-[α-Methyl-(4-methoxybenzyl)]-1-(4-ethylpiperazin-1-yl)isoquinoline Oxalate]
95 to 97 °C	CCN1CCN(c2nc(C(O)c3ccc(OC)cc3)cc3ccccc23)CC1 (stereo not drawn) (as salt: oxalate) [Example 104, 3-[α-Hydroxy-(4-methoxybenzyl)]-1-(4-ethylpiperazin-1-yl)isoquinoline Oxalate]
153 to 156 °C	CCN1CCN(c2nc(C(=O)c3ccccc3OC)cc3ccccc23)CC1 (as salt: oxalate) [Example 111, 3-(2-Methoxyphenylcarbonyl)-1-(4-ethylpiperazin-1-yl)isoquinoline Oxalate]
176 to 179 °C	CCN1CCN(c2nc(C(=O)c3ccc(OC)cc3)cc3ccccc23)CC1 (as salt: oxalate) [Example 112, 3-(4-Methoxyphenylcarbonyl)-1-(4-ethylpiperazin-1-yl)isoquinoline Oxalate]
122 to 124 °C	CCN1CCN(c2nc(C3CCc4ccc(OC)cc43)cc3ccccc23)CC1 (stereo not shown) (as salt: oxalate) [Example 114, 3-(6-Methoxyindan-1-yl)-1-(4-ethylpiperazin-1-yl)isoquinoline Oxalate]
112 to 114 °C	CCN1CCN(c2nc(C3=CCCc4cc(OC)ccc43)cc3ccccc23)CC1 (as salt: oxalate) [Example 117, 3-(7-Methoxy-1,2-dihydronaphthalen-4-yl)-1-(4-ethylpiperazin-1-yl)isoquinoline Oxalate]
156 to 159 °C	CCN1CCN(c2nc(-c3ccc(C4=CCOCC4)nc3)cc3ccccc23)CC1 (as salt: oxalate) [Example 155, 3-[2-(5,6-dihydro-2H-pyran-4-yl)pyridin-5-yl]-1-(4-ethylpiperazin-1-yl)isoquinoline oxalate]
158 to 160 °C	CCN1CCN(c2nc(-c3ccc(C4CCOCC4)nc3)cc3ccccc23)CC1 (as salt: oxalate) [Example 156, 3-[2-(tetrahydropyran-4-yl)pyridin-5-yl]-1-(4-ethylpiperazin-1-yl)isoquinoline oxalate]
231 to 233 °C	CCN1CCN(c2nc(C#CCN3CCOCC3)cc3ccccc23)CC1 (as salt: oxalate) [Example 180, 3-[3-(4-Morpholinyl)-1-Propynyl]-1-(4-Ethylpiperazin-1-Yl)Isoquinoline Oxalate]
161 to 163 °C	CCN1CCN(c2nc(C#CC(=O)c3ccccc3)cc3ccccc23)CC1 (as salt: oxalate) [Example 184, 1-(1-Ethylpiperazin-4-Yl)-3-Benzoylethynylisoquinoline Oxalate]
245 to 247 °C	CCN1CCN(c2nc(/C=C/c3ccc(CS(C)(=O)=O)cc3)cc3ccccc23)CC1 (as salt: oxalate) [Example 203, 3-[(E)-2-(4-Methylsulfonylmethylphenyl)Ethenyl]-1-(4-Ethylpiperazin-1-Yl)Isoquinoline Oxalate]
180 to 182 °C	CCN1CCN(c2nc(/C=C/c3cccc(N4CCOCC4)c3)cc3ccccc23)CC1 (as salt: oxalate) [Example 204, 3-{(E)-2-[3-(4-Morpholinyl)Phenyl]Ethenyl}-1-(4-Ethylpiperazin-1-Yl)Isoquinoline Oxalate]
248 to 250 °C	CCN1CCN(c2nc(/C=C/c3ccc(N4CCOCC4)cc3)cc3ccccc23)CC1 (as salt: oxalate) [Example 205, 3-{(E)-2-[4-(4-Morpholinyl)Phenyl]Ethenyl}-1-(4-Ethylpiperazin-1-Yl)Isoquinoline Oxalate]
266 to 267 °C	CCN1CCN(c2nc(/C=C(\C)c3ccc(N4CCOCC4)cc3)cc3ccccc23)CC1 (as salt: oxalate) [Example 206, 3-{(E)-2-Methyl-2-[4-(4-Morpholinyl)Phenyl]Ethenyl}-1-(4-Ethylpiperazin-1-Yl)Isoquinoline Oxalate]

melting point	Compound
190 to 192 °C	CCN1CCN(c2nc(/C=C(\C)c3cccc(N4CCOCC4)c3)cc3ccccc23)CC1 (as salt: oxalate) [Example 207, 3-{(E)-2-Methyl-2-[3-(4-Morpholinyl)Phenyl]Ethenyl}-1-(4-Ethylpiperazin-1-Yl)Isoquinoline Oxalate]
88 to 90 °C	CCN1CCN(c2nc(/C=C/c3ccc(N4CCOCC4)nn3)cc3ccccc23)CC1 (as salt: oxalate) [Example 214, 3-{(E)-2-[3-(4-Morpholinyl)Pyridazin-6-Yl]Ethenyl}-1-(4-Ethylpiperazin-1-Yl)Isoquinoline Oxalate]
130 to 134 °C	CCN1CCN(c2nc(/C=C/c3cc(N4CCOCC4)ncn3)cc3ccccc23)CC1 (as salt: oxalate) [Example 215, 3{(E)-2-[4-(4-morpholinyl)pyrimidin-6-yl]ethenyl}-1-(4-ethylpiperazin-1-yl)isoquinoline oxalate]
173 to 175 °C	CCN1CCN(c2nc(/C=C/c3cncc(N4CCOCC4)n3)cc3ccccc23)CC1 (as salt: oxalate) [Example 216, 3-{(E)-2-[2-(4-morpholinyl)pyrazin-6-yl]ethenyl}-1-(4-ethylpiperazin-1-yl)isoquinoline oxalate]
114 to 116 °C	CCN1CCN(c2nc(-c3ccc(CCCO)c(Cl)c3)cc3ccsc23)CC1 (as salt: oxalate) [Example 257, 5-[4-(3-hydroxypropyl)-3-chlorophenyl]-7-(4-ethylpiperazin-1-yl)thieno[2,3-c]pyridine Oxalate]
98 to 102 °C	CCN1CCN(c2nc(-c3ccc(OC)c(CCCO)c3)cc3ccsc23)CC1 (as salt: oxalate) [Example 261, 5-[3-(3-hydroxypropyl)-4-methoxyphenyl]-7-(4-ethylpiperazin-1-yl)thieno[2,3-c]pyridine Oxalate]
132 to 134 °C	CCN1CCN(c2nc(-c3ccc(CCCO)c(C#N)c3)cc3ccsc23)CC1 (as salt: oxalate) [Example 262, 5-[4-(3-hydroxypropyl)-3-cyanophenyl]-7-(4-ethylpiperazin-1-yl)thieno[2,3-c]pyridine Oxalate]
124 to 125 °C	CCN1CCN(c2nc(-c3ccc(OCCO)nc3)cc3ccsc23)CC1 (as salt: oxalate) [Example 268, 5-[2-(2-hydroxyethoxy)pyridin-5-yl]-7-(4-ethylpiperazin-1-yl)thieno[2,3-c]pyridine Oxalate]
105 to 107 °C	OCCOc1ccc(-c2cc3ccsc3c(N3CCN(CCO)CC3)n2)cc1 (as salt: oxalate) [Example 275, 5-[4-(2-hydroxyethoxy)phenyl]-7-[4-(2-hydroxyethyl)piperazin-1-yl]thieno[3,2-c]pyridine oxalate]
130 °C (dec.)	CCN1CCN(c2nc(-c3ccc(OCCO)cc3)cc3cscc23)CC1 (as salt: oxalate) [Example 278, 4-(4-ethylpiperazin-1-yl)-6-[4-(2-hydroxyethoxy)phenyl]thieno-[3,4-c]pyridine oxalate]
130 to 131 °C	CCC(O)c1ccc(-c2cc3sccc3c(N3CCN(CC)CC3)n2)cc1 (stereo not shown) (as salt: oxalate) [Example 282, 4-(4-ethylpiperazin-1-yl)-6-[4-(1-hydroxypropyl)phenyl]thieno-[3,2-c]pyridine oxalate]
145 to 152 °C	CCN1CCN(c2nc(-c3ccc(OCCO)cc3)cc3ccoc23)CC1 (as salt: oxalate) [Example 301, 7-(1-Ethylpiperazin-4-yl)-5-[4-(2-hydroxyethoxy)phenyl]furo[2,3-c]pyridine oxalate]
219 to 221 °C	CCN1CCN(Cc2nc(-c3ccc(OC)cc3)cc3ccccc23)CC1 (as salt: oxalate) [Example 328, 3-(4-methoxyphenyl)-1-(4-ethylpiperazin-1-yl)methylisoquinoline oxalate]
181.5 to 183 °C	CCN1CCN(c2nc(Sc3ccccc3)cc3ccccc23)CC1 (as salt: oxalate) [Example 374, 1-(4-ethylpiperazin-1-yl)-3-(phenylthio)isoquinoline oxalate]
174 to 176 °C	CCN1CCN(c2nc(-c3ccc(CC(C)O)cc3)cc3ccccc23)CC1 (stereo not shown) (as salt: oxalate) [Example 376, 1-(4-ethylpiperazin-1-yl)-3-[4-(2-hydroxypropyl)phenyl]isoquinoline oxalate]
184 to 186 °C (dec.)	CCN1CCN(c2nc(-c3ccc(CC(C)(C)O)cc3)cc3ccccc23)CC1 (as salt: oxalate) [Example 377, 1-(4-Ethylpiperazin-1-yl)-3-[4-(2-Hydroxy-2-Methylpropyl)Phenyl]Isoquinoline Oxalate]

Compound	melting point
CCCC(O)c1ccc(-c2cc3ccccc3c(N3CCN(CC)CC3)n2)cc1 (stereo not shown) (as salt: oxalate) [Example 21, 1-(4-ethylpiperazin-1-yl)-3-[4-(1-hydroxybutyl)phenyl]isoquinoline oxalate]	198.5 to 199.5 °C
CCN1CCN(c2nc(-c3ccc(CCC(C)O)cc3)cc3ccccc23)CC1 (stereo not shown) (as salt: oxalate) [Example 22, 1-(4-ethylpiperazin-1-yl)-3-[4-(3-hydroxybutyl)phenyl]isoquinoline oxalate]	193 to 194 °C
CCN1CCN(c2nc(C#Cc3ccccn3)cc3ccccc23)CC1 (as salt: oxalate) [Example 179, 1-(1-Ethylpiperazin-4-Yl)-3-(2-Pyridyl)Ethynylisoquinoline Oxalate]	148 to 154 °C
CCN1CCN(c2nc(C#CCc3ccccc3)cc3ccccc23)CC1 (as salt: oxalate) [Example 181, 1-(1-Ethylpiperazin-4-Yl)-3-(3-Phenyl-1-Propynyl)Isoquinoline Oxalate]	180 to 183 °C
CCN1CCN(c2nc(-c3ccc(C(C)O)cc3)cc3sccc23)CC1 (stereo not shown) (as salt: oxalate) [Example 281, 4-(4-ethylpiperazin-1-yl)-6-[4-(1-hydroxyethyl)phenyl]thieno[3,2-c]pyridine oxalate]	134 to 135 °C
